Assay results as given in patent US5997501A, “Intradermal drug delivery device” (Elan Corporation, plc, priority 1993, dated 1999).

Key:
blood glucose [1] = assay: Whole blood glucose concentration (Ames glucometer) in rabbits during device delivery of insulin (Example 3); format: in vivo, New Zealand white rabbits; conditions: normal and diabetic animals; 5 IU/h
Text: (§1) Devices manufactured according to the present invention were used to study the delivery of insulin, heparin and salmon calcitonin to New Zealand white rabbits weighing between 2.5 kg and 3.5 kg. Hair was removed from the dorsal surface of the animal using an electric clipper twenty-fours prior to application of the device. Arterial blood samples were withdrawn for determination of plasma concentration of drug through an indwelling cannula placed in the ear artery.
(§2) Diabetes was induced in test rabbits by administration intravenously of a 150 mg/kg dose of alloxan (monohydrate) to fasted rabbits. The rabbits were provided with a dextrose solution for three days after alloxan administration and after this time normal diet was resumed. Test animals were maintained healthy with a commercial insulin preparation prior to the study. The devices were attached to the rabbits and delivery of insulin at a rate of 5 IU/h was commenced to normoglycaemic animals (for 3 hours) and to diabetic animals (for 3.25 hours). Whole blood glucose concentrations were measured using an Ames glucometer and plasma insulin concentration were measured using a RIA method.

[2] = Plasma insulin concentration (RIA) in rabbits during device delivery of insulin (Example 3); format: in vivo, New Zealand white rabbits; conditions: 5 IU/h, time=3h
Text: as §1, §2

blood glucose [3] = assay: Blood glucose concentration in rabbits after intradermal device infusion of insulin (Example 1, FIG. 19); format: in vivo, rabbit; conditions: for mean blood glucose concentration: control value 6.25 mmol/l
Description: A device according to the present invention containing 0.6 ml of a solution of insulin (100 I.U./ml) was affixed to each of two rabbits and the devices were switched on. The insulin solution was infused at a rate of 0.1 ml/hour for two hours. […] At one hour, mean blood glucose concentration had fallen from a control value of 6.25 mmol/l to 3.2 mmol/l. This value stayed relatively constant at 1.5 hours following activation (2.65 mmol/l) and at 2 hours (2.5 mmol/l), at which time the devices were removed.

[4] = format: in vivo, New Zealand white rabbits; conditions: 1000 IU/h for 5 hours from device
Text: as §1
Delivery of heparin from devices according to the present invention was studied by administering heparin at a rate of 1000 IU/h for 5 hours. Plasma heparing was assayed using an EIA method.

serum calcium = assay: Serum calcium concentration in rabbits after intradermal device infusion of salmon calcitonin (Example 2, FIG. 20); format: in vivo, rabbit; conditions: for mean serum calcium concentration, % of control value: 1.0 mg/ml at 0.1 ml/hour for 6 hours, four rabbits
Description: A device according to the present invention containing 0.6 ml of a solution of salmon calcitonin (1.0 mg/ml) was affixed to each of four rabbits. This solution was infused at the rate of 0.1 ml/hour for 6 hours. Serum calcium concentrations were measured via an ear vein at 0, 0.5, 1, 2, 3, 4, 5 and 6 hours following activation of the device, at which point the device was removed.

[5] = Delivery of calcitonin from device compared with conventional subcutaneous injection (plasma calcitonin by EIA, plasma calcium by photometric analysis); format: in vivo, New Zealand white rabbits
Text: as §1
To compare delivery of calcitonin using devices according to the present invention to conventional delivery, 40 IU calcitonin was delivered to a rabbit over 2 hours from a device according to the present invention and 20 IU calcitonin was delivered by a conventional single subcutaneous injection. In a further study, calcitonin was delivered at a rate of 25 IU/h and 100 IU/h for a period of 6 hours from devices according to the present invention. Plasma concentrations of calcium were measured using a photometric analysis while calcitonin concentrations were measured by an EIA method.

Substance: insulin: solution of insulin (100 I.U./ml)
- blood glucose concentration, change (blood glucose [1]): corresponding decrease in blood glucose concentration was observed for both normal and diabetic animals
- plasma insulin concentration ([2]; diabetic (alloxan) rabbits, approximately 10 fmol/ml at time 0): approximately 240 fmol/ml
- plasma insulin concentration ([2]; normal (normoglycaemic) rabbits, approximately 25 fmol/ml at time 0): approximately 275 fmol/ml
- mean blood glucose concentration (blood glucose [3]; 1 hour following activation, 100 I.U./ml at 0.1 ml/hour, two rabbits): 3.2 mmol/L
- mean blood glucose concentration (blood glucose [3]; 1.5 hours following activation, 100 I.U./ml at 0.1 ml/hour): 2.65 mmol/L
- mean blood glucose concentration (blood glucose [3]; 2 hours following activation (devices removed), 100 I.U./ml at 0.1 ml/hour): 2.5 mmol/L
- mean blood glucose, course after device removal (blood glucose [3]; later than one hour after device removal): continued to rise with time
- mean blood glucose concentration (blood glucose [3]; one hour after device removal): 3.7 mmol/L

Substance: heparin
- amounts of heparin delivered [4]: significant anticoagulant amounts

Substance: salmon calcitonin
- mean calcium concentrations, course (serum calcium; 0 to 6 hours, 0.1 ml/hour): fell steadily throughout the period of application
- mean serum calcium concentration, % of control value (serum calcium; 5 hours following activation): 62.5%
- mean serum calcium concentration, % of control value (serum calcium; 6 hours following activation): 66.6%
- delivery of calcitonin, dose proportionality ([5]; 25 IU/h and 100 IU/h for 6 hours from devices): dose proportional
- delivery of calcitonin compared with conventional routes ([5]; 40 IU over 2 hours from device vs 20 IU single subcutaneous injection): comparable to that from conventional routes
